In BigSolDB 2.1:

CC(=O)Nc1ccc(OC(=O)c2ccccc2OC(C)=O)cc1
solubility (mole fraction)
Conditions	278.15 K	283.15 K	288.15 K	293.15 K	298.15 K	303.15 K	308.15 K	313.15 K	318.15 K
in acetone	0.00215	0.00268	0.00353	0.00414	0.0052	0.00593	0.00792	0.0098	0.0123
in acetonitrile	0.00129	0.00153	0.00192	0.00235	0.00275	0.00378	0.00452	0.00575	0.00674
in ethanol	0.000242	0.000364	0.000497	0.000601	0.000717	0.000987	0.00125	0.00155	0.002
in ethyl acetate	0.000904	0.00109	0.00115	0.00147	0.00179	0.00216	0.00268	0.00325	0.00391
in ethyl formate	0.000965	0.00111	0.00138	0.00165	0.00193	0.00227	0.00299	0.00394	0.00449
in isobutanol	0.000204	0.000272	0.000344	0.000485	0.000587	0.000739	0.00107	0.00131	0.00161
in isopropanol	0.000153	0.000216	0.000261	0.000314	0.000481	0.000593	0.000833	0.00106	0.00137
in isopropyl acetate	0.000329	0.000423	0.00056	0.000886	0.00106	0.00145	0.00189	0.00241	0.00314
in methanol	0.000427	0.000575	0.000718	0.000908	0.001	0.00129	0.00171	0.0021	0.00271
in methyl acetate	0.000971	0.00121	0.00155	0.00183	0.0023	0.00267	0.0034	0.00406	0.00481
in n-butanol	0.000302	0.000407	0.000517	0.000643	0.000764	0.000939	0.00127	0.00143	0.00174
in n-propanol	0.000181	0.000268	0.000361	0.000561	0.000723	0.000994	0.0013	0.00166	0.00222
